This passage reports EC50 results from patent publication US20250120961A1, “P53 MODULATORS” (Nested Therapeutics, Inc., priority 2023, published 2025).

The experiment deals with His-tagged p53-Y220C DNA binding domain (Homo sapiens, UniProt P04637, Y220C). Nature of the experiment: Biochemical p53-Y220C and DNA binding assay (HTRF). The following applies: inflection point of 10 points dose titration, 4 parameter curve fit; p53-Y220C DBD 100 nM, biotinylated dsDNA 200 nM, 27 to 29° C.; read-out: HTRF IP. Put shortly: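 DBD (aa 94-312, 100 nM) mixed with compound and biotinylated consensus dsDNA (200 nM) in DPBS/20 mM NaCl/0.5% BSA, overnight at 4 °C, then 60 min at 27-29 °C; anti-His Tb/streptavidin-d2 HTRF read. Activation normalized to reference compound (500%) and DMSO (0%); 10-point curve, inflection point reported.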
On to `O=C(OCc1ccccc1)N1CCC(O)(CO/N=C/c2sc3c(N[C@@H]4CNC[C@@H]4F)cccc3c2CC(F)(F)F)CC1` [Example 1-25, benzyl 4-(((((E)-(7-(((3R,4S)-4-fluoropyrrolidin-3-yl)amino)-3-(2,2,2-trifluoroethyl)benzo[b]thiophen-2-yl)methylene)amino)oxy)methyl)-4-hydroxypiperidine-1-carboxylate], for which the EC50 is over 1 µM.

Take `OCC1(O/N=C/c2sc3c(N[C@@H]4CNC[C@@H]4F)cccc3c2CC(F)(F)F)CCCOC1` (stereo partly drawn) [Example 1-16, (E)-7-(((3R,4S)-4-fluoropyrrolidin-3-yl)amino)-3-(2,2,2-trifluoroethyl)benzo[b]thiophene-2-carbaldehyde O-(3-(hydroxymethyl)tetrahydro-2H-pyran-3-yl) oxime]: the EC50 was over 1 µM.

With `OCC(O)CO/N=C/c1sc2c(N[C@@H]3CNC[C@@H]3F)cccc2c1CC(F)(F)F` (stereo partly drawn) [Example 1-6, (E)-7-(((3R,4S)-4-fluoropyrrolidin-3-yl)amino)-3-(2,2,2-trifluoroethyl)benzo[b]thiophene-2-carbaldehyde O-(2,3-dihydroxypropyl) oxime], the EC50 was in the range of 0.1 to 1 µM.

With `OC1(CO/N=C\c2sc3c(N[C@@H]4CNC[C@@H]4F)cccc3c2CC(F)(F)F)CCCCC1` [Example 1-31, (Z)-7-(((3R,4S)-4-fluoropyrrolidin-3-yl)amino)-3-(2,2,2-trifluoroethyl)benzo[b]thiophene-2-carbaldehyde O-((1-hydroxycyclohexyl)methyl) oxime], the EC50 was over 1 µM.

In the case of `CN1CC[C@@H](Nc2cccc3c2cc(/C=N/OCC2CC2)n3CC(F)(F)F)[C@@H](F)C1` [Example 2-1, (E)-4-(((3S,4R)-3-fluoro-1-methylpiperidin-4-yl)amino)-1-(2,2,2-trifluoroethyl)-1H-indole-2-carbaldehyde O-cyclopropylmethyl oxime], the EC50 is over 1 µM.

Turning to `NCC(CO)O/N=C/c1sc2c(N[C@@H]3CNC[C@@H]3F)cccc2c1CC(F)(F)F` (stereo partly drawn) [Example 1-9, (E)-7-(((3R,4S)-4-fluoropyrrolidin-3-yl)amino)-3-(2,2,2-trifluoroethyl)benzo[b]thiophene-2-carbaldehyde O-(1-amino-3-hydroxypropan-2-yl) oxime], the EC50 was over 1 µM.

With `CN1CC[C@@H](Nc2cccc3c(CC(F)(F)F)c(/C=N/OCc4cccc(=O)n4C)sc23)[C@@H](F)C1` [Example 2-29, (E)-7-(((3S,4R)-3-fluoro-1-methylpiperidin-4-yl)amino)-3-(2,2,2-trifluoroethyl)benzo[b]thiophene-2-carbaldehyde O-((1-methyl-6-oxo-1,6-dihydropyridin-2-yl)methyl) oxime], the EC50 was 0.1 to 1 µM.
